US20260376299A1, “METHODS OF TREATING ACUTE MYELOID LEUKEMIA” (The Regents of the University of Colorado, A Body Corporate, priority 2022, published 2026)

Columns and labels:
[1] = test system: m-LSCs; experiment: Colony-forming unit (CFU) assay on m-LSCs; format: cell-based, human; details: for selectivity for m-LSCs over p-LSCs and normal HSPCs / potency against m-LSCs, CdA versus BRQ and MTX: CFU assay; for selectivity for m-LSCs over p-LSCs and normal HSPCs: FIG. 6C; for potency against m-LSCs, CdA versus BRQ and MTX: FIG. 6D
Protocol: FIG. 6C and FIG. 6D show the impact of chemotherapy agents AraC, DNR, DHODH inhibitor brequinar (BRQ), and TYMS inhibitor methotrexate (MTX) on the CFU potential of m-LSCs, p-LSCs and CD34+ HSPCs. […] IP, intraperitoneal; OG, oral gavage. […] Engraft % was determined by % of hCD45+/mCD45− cells within total viable bone marrow mononuclear cells. Each dot represents a unique mouse. For PDX of AML-13, control (n=11), VEN+AZA(n=9), CdA(n=10), VEN+AZA+CdA(n=10). For PDX of AML-07, control(n=11), VEN+AZA(n=9), CdA(n=12), VEN+AZA+CdA(n=9). Box plots represent median+interquartile range. Kruskal-Wallis test was used. ns, not significant. […] Engraft % was determined by % of hCD45+/mCD45− cells within total viable spleen mononuclear cells. hCD45+ count was determined by direct quantification of hCD45+/mCD45− cells within a set volume of spleen harvest using flow cytometry. Each dot represents a unique mouse. Control (n=6), VEN+AZA(n=6), CdA(n=6), VEN+AZA+CdA(n=6). Box plots represent median+/−interquartile. Kruskal-Wallis test was used. ns, not significant.
(§1) Methotrexate (MTX), brequinar (BRQ), and cladribine (CdA) were selected based on their activities in inhibiting one-carbon metabolism enzymes DHFR and TYMS, pyrimidine synthesis enzyme DHODH, and purine-based DNA/RNA synthesis, respectively. Colony-forming unit assays were performed on m-LSCs and p-LSCs isolated from Mono, Multi-MMP, and Prim specimens, along with normal CD34+ hematopoietic stem and progenitor cells (HSPC) from two healthy donors.
Freshly sorted m-LSCs from primary AMLs or prepared CD34+ HSPCs isolated from normal mobilized peripheral samples were plated in human methylcellulose (R&D systems) at about 100 K/ml and 2 K/ml, respectively. Small molecule inhibitors were directly added into the methylcellulose at the desired final concentration at the plating. Colonies were counted 2-3 weeks after the initial plating.

[2] = test system: monocytic subpopulation of engrafted AML cells; experiment: Flow analysis of residual engrafted human cells after in vivo treatment; parameters: species or system human AML in NSG-S mice
Protocol: as §1
NSG-S (NOD.Cg-Prkdcscid Il2rgtm1Wjl Tg(CMV-IL3,CSF2,KITLG)1Eav/MloySzJ) mice (The Jackson Laboratory) were used for xenograft studies in this study. Male or female mice ranging in age from 6 to 8 weeks were started on experiment. Littermates of the same sex were randomly assigned to experimental groups. NSG-S mice were pre-conditioned 24 hours prior to transplant with 30 mg/kg busulfan (Alfa Acsar) via intraperitoneal (IP) injection. The busulfan stock was made fresh at 25 mg/ml in 100% DMSO, then the stock was diluted 1:10 in pre-warmed saline (0.9% NaCl) down to 2.5 mg/ml right before use. The diluted busulfan solution was kept in 37 °C water bath before IP injection to prevent precipitation of busulfan due to low solubility. […]
About 2-4 weeks post initial transplant, tumor burden in the bone marrow was determined to be above 5% in sentinel mice. […]

[3] = test system: p-LSCs; experiment: Colony-forming unit (CFU) assay on p-LSCs; format: cell-based, human
Protocol: (§2) FIG. 6C and FIG. 6D show the impact of chemotherapy agents AraC, DNR, DHODH inhibitor brequinar (BRQ), and TYMS inhibitor methotrexate (MTX) on the CFU potential of m-LSCs, p-LSCs and CD34+ HSPCs. […] IP, intraperitoneal; OG, oral gavage. […] Engraft % was determined by % of hCD45+/mCD45− cells within total viable bone marrow mononuclear cells. Each dot represents a unique mouse. For PDX of AML-13, control (n=11), VEN+AZA(n=9), CdA(n=10), VEN+AZA+CdA(n=10). For PDX of AML-07, control(n=11), VEN+AZA(n=9), CdA(n=12), VEN+AZA+CdA(n=9). Box plots represent median+interquartile range. Kruskal-Wallis test was used. ns, not significant. […] Engraft % was determined by % of hCD45+/mCD45− cells within total viable spleen mononuclear cells. hCD45+ count was determined by direct quantification of hCD45+/mCD45− cells within a set volume of spleen harvest using flow cytometry. Each dot represents a unique mouse. Control (n=6), VEN+AZA(n=6), CdA(n=6), VEN+AZA+CdA(n=6). Box plots represent median+/−interquartile. Kruskal-Wallis test was used. ns, not significant. […]
(§3) Freshly sorted m-LSCs from primary AMLs or prepared CD34+ HSPCs isolated from normal mobilized peripheral samples were plated in human methylcellulose (R&D systems) at about 100 K/ml and 2 K/ml, respectively. […] Colonies were counted 2-3 weeks after the initial plating.

[4] = test system: normal CD34+ HSPCs; experiment: Colony-forming unit (CFU) assay on normal CD34+ HSPCs; format: cell-based, human; details: normal CD34+ HSPCs from two healthy donors
Protocol: as §2, §3

[5] = test system: AML patients; details: cited from earlier work

Question: With COc1cccc2c1C(=O)c1c(O)c3c(c(O)c1C2=O)C[C@@](O)(C(C)=O)C[C@@H]3O[C@H]1C[C@H](N)[C@H](O)[C@H](C)O1 [daunorubicin] as the molecule, how does the “selectivity for m-LSCs over p-LSCs and normal HSPCs” value [1] read?
Answer: selectivity was not seen

Question: For Cc1c(-c2ccc(-c3ccccc3F)cc2)nc2ccc(F)cc2c1C(=O)O [BRQ, 6-fluoro-2-(2′-fluoro-1,1′-biphenyl-4-yl)-3-methyl-4-quinolinecarboxylic acid], which “potency against m-LSCs, CdA versus BRQ and MTX” value (from here on “potency … CdA versus BRQ and MTX”) [1] is on record?
Answer: CdA also outperformed BRQ and MTX in potency against m-LSCs

Question: For Nc1nc(Cl)nc2c1ncn2[C@H]1C[C@@H](O)[C@@H](CO)O1 (stereo in doubt) [CdA, 5-(6-Amino-2-chloro-purin-9-yl)-2-(hydroxymethyl)oxolan-3-ol], which “clearance of the monocytic subpopulation” value [2] is on record?
Answer: targeted the monocytic counterpart

Question: What about the “effect on CFU potential (sparing)” value [3] of the same molecule?
Answer: sparing p-LSCs

Question: And the “potency … CdA versus BRQ and MTX” value [1]?
Answer: outperformed BRQ and MTX in potency against m-LSCs

Question: And the “effect on CFU potential / specificity against m-LSCs” value ([1]; m-LSCs isolated from AML specimens)?
Answer: remarkable specificity against m-LSCs

Question: And the “effect on CFU potential (sparing)” value [4]?
Answer: sparing p-LSCs as well as normal HSPC controls

Question: For Nc1ccn([C@@H]2O[C@H](CO)[C@@H](O)[C@@H]2O)c(=O)n1 [cytarabine, 4-amino-1-[(2R,3S,4S,5R)-3,4-dihydroxy-5-(hydroxymethyl)oxolan-2-yl]pyrimidin-2-one], which “selectivity for m-LSCs over p-LSCs and normal HSPCs” value [1] is on record?
Answer: selectivity was not seen

Question: Which “responses to venetoclax in combination with backbone chemotherapy” value ([5]; older previously untreated AML patients) does the source give for CC1(C)CCC(CN2CCN(c3ccc(C(=O)NS(=O)(=O)c4ccc(NCC5CCOCC5)c([N+](=O)[O-])c4)c(Oc4cnc5[nH]ccc5c4)c3)CC2)=C(c2ccc(Cl)cc2)C1 [venetoclax, 4-(4-{[2-(4-Chlorophenyl)-4,4-dimethyl-1-cyclohexen-1-yl]methyl}-1-piperazinyl)-N-({3-nitro-4-[(tetrahydro-2H-pyran-4-ylmethyl)amino]phenyl}sulfonyl)-2-(1H-pyrrolo[2,3-b]pyridin-5-yloxy)benzamide] here?
Answer: 60-70%

Question: What about the “CR/CRi and MRD negativity rates” value ([5]; venetoclax combined with chemotherapy regimens FLAG-Ida, CLIA or Clad-LDAC/AZA, recent clinical trials) of the same molecule?
Answer: superior CR/CRi and MRD negativity rates

Question: Which “potency … CdA versus BRQ and MTX” value [1] does the source give for CN(Cc1cnc2nc(N)nc(N)c2n1)c1ccc(C(=O)N[C@@H](CCC(=O)O)C(=O)O)cc1 [MTX, (28)-2-[(4-{[(2,4-Diaminopteridin-6-yl)methyl](methyl)amino}benzoyl)amino]pentanedioic acid] here?
Answer: CdA also outperformed BRQ and MTX in potency against m-LSCs
